Measured values reported in article PMC7827648 (Molecules, 2021).
Several values for one entry are separate records, joined by “and”; a condition that tells them apart may be missing. Identical values can stand only once. Like-named read-outs stand apart in the source and are kept apart here.

What was measured:
[1] = system: A549 (lung adenocarcinoma) cells; parameters: method as in doi:10.1055/s-0036-1588486; conditions: read-out: IC50, 50% inhibition of the cell population growth, A549, data taken from ref [3]; cited from earlier work
[2] = system: HCT116 (intestinal carcinoma) cells; parameters: method as in doi:10.1055/s-0036-1588486; conditions: read-out: IC50, 50% inhibition of the cell population growth, HCT116, data taken from ref [3]; cited from earlier work
[3] = system: RD (rhabdomyosarcoma) cells; parameters: method as in doi:10.1055/s-0036-1588486; conditions: read-out: IC50, 50% inhibition of the cell population growth, RD, data taken from ref [3]; cited from earlier work
[4] = system: HeLa (adenocarcinoma of the cervix uterus) cells; parameters: method as in doi:10.1055/s-0036-1588486; conditions: read-out: IC50, 50% inhibition of the cell population growth, HeLa, data taken from ref [3]; cited from earlier work
[5] = system: HeLa (adenocarcinoma of the cervix uterus) cells; experiment: Cytotoxicity, MTT assay, HeLa cells; type: cell-based; conditions: Homo sapiens, read-out: IC50, 50% inhibition of the cell population growth, 72 h, mean ± SD
Procedure: (§1) The cytotoxicity of the newly synthesized Schiff bases was evaluated in vitro in a panel of cultured tumor cells, assessing cell viability at scalar concentrations of the test compounds (≤500 μM) by MTT (i.e., 3-(4,5-dimethylthiazol-2-yl)-2,5-diphenyltetrazolium bromide) and Alamar Blue assays, using doxorubicin as the positive controls. Most of the compounds were tested against RD (rhabdomyosarcoma), HCT116 (intestinal carcinoma), HeLa (adenocarcinoma of the cervix uterus) and A549 (lung adenocarcinoma) cell lines, whereas five representative compounds of the subsets were tested also against K562 (chronic myelogenous leukemia) tumor cells.
(§2) The experiments were carried out in triplicate.

[6] = system: RD (rhabdomyosarcoma) cells; experiment: Cytotoxicity, MTT assay, RD cells; type: cell-based; conditions: Homo sapiens, read-out: IC50, 50% inhibition of the cell population growth, 72 h, mean ± SD
Procedure: as §1, §2

[7] = system: HCT116 (intestinal carcinoma) cells; experiment: Cytotoxicity, MTT assay, HCT116 cells; type: cell-based; conditions: Homo sapiens, HCT-116, read-out: IC50, 50% inhibition of the cell population growth, 72 h, mean ± SD
Procedure: as §1, §2

[8] = biological target: T1, human MAO B (Homo sapiens, UniProt P27338); experiment: biochemical; conditions: for inhibition at 10 µM: mean ± SD (n = 3), read-out: % inhibition hMAO B
T1 construct: host or cells: baculovirus-infected insect cells (microsomes)
T1 sequence (P27338 1-520): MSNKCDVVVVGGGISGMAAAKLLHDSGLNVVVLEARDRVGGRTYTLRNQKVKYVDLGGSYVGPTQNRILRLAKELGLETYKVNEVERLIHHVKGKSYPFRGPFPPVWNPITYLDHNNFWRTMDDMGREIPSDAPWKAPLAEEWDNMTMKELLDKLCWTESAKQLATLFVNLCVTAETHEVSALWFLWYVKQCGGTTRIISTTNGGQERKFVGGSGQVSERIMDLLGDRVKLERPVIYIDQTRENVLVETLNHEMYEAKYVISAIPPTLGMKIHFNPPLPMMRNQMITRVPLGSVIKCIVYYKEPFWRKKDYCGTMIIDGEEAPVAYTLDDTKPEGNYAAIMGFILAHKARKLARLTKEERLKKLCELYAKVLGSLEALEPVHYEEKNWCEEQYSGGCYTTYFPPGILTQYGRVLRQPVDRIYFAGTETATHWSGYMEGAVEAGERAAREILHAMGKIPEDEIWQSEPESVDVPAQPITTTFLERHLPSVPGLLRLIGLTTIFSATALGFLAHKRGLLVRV
Procedure: (§3) The inhibition of human recombinant MAO A (250 U/mg) and B (59 U/mg; microsomes from baculovirus-infected insect cells) was evaluated using the reported 96-well plate technique [12]. on a Tecan Infinite M1000 Pro instrument (Cernusco s.N., Italy). […] After addition of the enzyme and 30 min of incubation, NaOH was added and the fluorescence read at the 310/400 excitation/emission wavelength.

[9] = in vitro; conditions: human
[10] = system: A549 (lung adenocarcinoma) cells; experiment: Cytotoxicity, MTT assay, A549 cells; type: cell-based; conditions: Homo sapiens, read-out: IC50, 50% inhibition of the cell population growth, 72 h, mean ± SD
Procedure: as §1, §2

[11] = system: K562 (chronic myelogenous leukemia) cells; experiment: Cytotoxicity, Alamar Blue (resazurin) assay, K562 cells; type: cell-based; conditions: Homo sapiens, read-out: IC50, 50% inhibition of the cell population growth, 72 h, mean ± SD
Procedure: as §1, §2

[12] = biological target: T2, β-amyloid (Aβ)1–40 self-aggregation (Homo sapiens, UniProt P05067); experiment: Inhibition of self-induced Aβ40 aggregation, thioflavin T fluorescence; type: biochemical; conditions: for IC50: PBS pH 7.4, 2 h
T2 construct: self-aggregation of Aβ peptides 1–40 (Aβ40)
Procedure: Molecules able to inhibit simultaneously AChE and β-amyloid (Aβ) aggregation/neurotoxicity may have potential as drugs for the treatment of AD [14]. Herein, the new DHPPIQ derivatives were evaluated for the inhibitory effects on the self-aggregation of Aβ peptides 1–40 (Aβ40), through a test based on the measurement of thioflavin T (ThT) fluorescence. Quercetin, which is a strong inhibitor of in vitro Aβ self-aggregation, was used as a positive control.
Each compound was initially tested at a 100-μM concentration. […] […].
According to an already reported 96-well plate procedure, the test compounds at 100 μM were incubated with Aβ40 (30 μM) and 2% HFIP (1,1,1,3,3,3-hexafluoro-2-propanol), used as aggregation enhancer in PBS pH 7.4 for 2 h at room temperature. After the addition of ThT, the fluorescence was read at the 440/485 nm excitation/emission wavelength. Experiments were performed in triplicate, and the % inhibition values calculated as mean ± SD.

[13] = biological target: human acetylcholinesterase (AChE) (Homo sapiens, UniProt P22303); experiment: biochemical; conditions: for IC50: human recombinant AChE, pH 8.0, mean ± SD (n = 3), read-out: IC50 hAChE; for inhibition mechanism on hAChE: Michaelis-Menten / Lineweaver-Burk plots; for Ki: complete kinetics, human AChE, read-out: inhibition constant (Ki) hAChE
Procedure: (§4) The ChE inhibition assay was carried out using the Ellman’s spectrophotometric method [23], as applied to the 96-well plate technique [24] on a Tecan Infinite M1000 Pro instrument (Cernusco s.N., Italy).

[14] = biological target: T3, human MAO A (Homo sapiens, UniProt P21397); experiment: biochemical; conditions: for inhibition at 10 µM: read-out: % inhibition hMAO A
T3 construct: host or cells: baculovirus-infected insect cells (microsomes)
T3 sequence (P21397 1-527): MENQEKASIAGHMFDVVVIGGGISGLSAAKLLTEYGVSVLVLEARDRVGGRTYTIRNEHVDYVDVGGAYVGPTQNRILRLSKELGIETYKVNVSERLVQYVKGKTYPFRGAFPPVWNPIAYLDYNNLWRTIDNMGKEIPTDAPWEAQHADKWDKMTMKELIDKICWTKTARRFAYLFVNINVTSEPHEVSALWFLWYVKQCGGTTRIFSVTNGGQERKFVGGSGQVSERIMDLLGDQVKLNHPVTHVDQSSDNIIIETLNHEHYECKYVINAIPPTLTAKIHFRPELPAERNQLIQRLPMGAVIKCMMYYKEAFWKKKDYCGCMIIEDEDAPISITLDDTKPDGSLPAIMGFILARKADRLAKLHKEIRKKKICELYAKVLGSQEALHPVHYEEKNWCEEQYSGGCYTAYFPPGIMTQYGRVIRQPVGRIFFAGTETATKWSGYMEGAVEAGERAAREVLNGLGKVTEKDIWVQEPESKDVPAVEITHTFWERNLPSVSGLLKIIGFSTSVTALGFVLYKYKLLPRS
Procedure: as §3

[15] = biological target: T4, human butyrylcholinesterase (BChE) (Homo sapiens, UniProt P06276); experiment: BChE inhibition, Ellman's method; type: biochemical; conditions: mean ± SD (n = 3), n.i. = no inhibition; for inhibition at 10 µM: read-out: % inhibition hBChE
T4 construct: BChE from human serum (50 U/mg); from tissue; host or cells: human serum
Procedure: as §4

[16] = Aβ40 30 μM, 2% HFIP, ThT, mean ± SD (n = 3)

Sequence of human acetylcholinesterase (AChE) (P22303 32-614): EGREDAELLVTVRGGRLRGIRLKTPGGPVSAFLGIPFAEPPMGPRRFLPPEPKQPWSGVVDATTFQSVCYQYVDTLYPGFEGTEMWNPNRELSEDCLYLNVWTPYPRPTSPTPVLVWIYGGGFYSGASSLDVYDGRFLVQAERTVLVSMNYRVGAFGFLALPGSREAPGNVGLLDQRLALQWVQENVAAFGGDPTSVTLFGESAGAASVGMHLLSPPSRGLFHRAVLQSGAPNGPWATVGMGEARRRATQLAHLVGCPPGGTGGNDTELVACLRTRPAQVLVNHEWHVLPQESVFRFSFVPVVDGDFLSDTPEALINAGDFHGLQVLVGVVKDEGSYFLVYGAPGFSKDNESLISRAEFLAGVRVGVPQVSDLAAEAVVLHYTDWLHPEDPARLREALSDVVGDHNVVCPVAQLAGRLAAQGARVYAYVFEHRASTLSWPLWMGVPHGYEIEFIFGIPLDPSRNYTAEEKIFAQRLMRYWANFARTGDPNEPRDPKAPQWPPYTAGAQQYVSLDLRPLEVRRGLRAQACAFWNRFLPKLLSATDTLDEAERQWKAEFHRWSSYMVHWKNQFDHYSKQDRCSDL
T2 sequence (P05067 672-711 limits assumed): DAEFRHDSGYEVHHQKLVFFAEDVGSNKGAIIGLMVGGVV
T4 sequence (P06276 29-602): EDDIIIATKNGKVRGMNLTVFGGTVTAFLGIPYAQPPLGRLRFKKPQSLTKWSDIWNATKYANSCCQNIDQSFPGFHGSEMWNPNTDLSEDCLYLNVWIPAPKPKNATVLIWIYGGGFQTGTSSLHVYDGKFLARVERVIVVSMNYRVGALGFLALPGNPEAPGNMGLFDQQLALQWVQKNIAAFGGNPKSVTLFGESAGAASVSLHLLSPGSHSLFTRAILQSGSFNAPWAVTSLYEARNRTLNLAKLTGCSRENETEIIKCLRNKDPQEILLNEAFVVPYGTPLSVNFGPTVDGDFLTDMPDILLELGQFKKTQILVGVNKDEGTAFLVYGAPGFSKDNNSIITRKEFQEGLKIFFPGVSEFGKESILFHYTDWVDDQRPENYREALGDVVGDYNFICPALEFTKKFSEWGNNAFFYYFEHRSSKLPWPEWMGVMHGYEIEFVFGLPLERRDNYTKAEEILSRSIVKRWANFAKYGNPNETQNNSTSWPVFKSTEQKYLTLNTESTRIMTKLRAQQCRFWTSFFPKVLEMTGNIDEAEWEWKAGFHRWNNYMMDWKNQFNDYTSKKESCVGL

CCOc1ccc(-c2c(C=O)cn3c2-c2cc(OCC)c(OCC)cc2CC3)cc1OCC [Compound 1]
IC50 [1]: 19.7 ± 0.3 µM | IC50 [2]: 11.8 ± 0.1 µM | IC50 [3]: 21.3 ± 1.2 µM | IC50 [4]: 44.5 ± 2 µM

CCOc1ccc(-c2c(C=O)c(-c3ccccc3)n3c2-c2cc(OCC)c(OCC)cc2CC3)cc1OCC [Compound 2]
IC50 [1]: 229 ± 21 µM | IC50 [2]: 183 ± 0.1 µM | IC50 [3]: 365 ± 23 µM

CCOc1ccc(-c2c(/C=N/c3ccc(OC)cc3)c(-c3ccccc3)n3c2-c2cc(OCC)c(OCC)cc2CC3)cc1OCC [Compound 8, (E)-1-(1-(3,4-diethoxyphenyl)-8,9-diethoxy-3-phenyl-5,6-dihydropyrrolo[2,1-a]isoquinolin-2-yl)-N-(4-methoxyphenyl)methanimine]
IC50 [5]: 304 ± 10 µM | IC50 [6]: 412 ± 20 µM | IC50 [7]: 286 ± 5 µM | melting point: 93 to 95 °C

COc1ccc(/N=C/c2cn3c(c2-c2ccc(Cl)cc2)-c2cc(OC)c(OC)cc2CC3)cc1 [Compound 9, (E)-1-(1-(4-chlorophenyl)-8,9-dimethoxy-5,6-dihydropyrrolo[2,1-a]isoquinolin-2-yl)-N-(4-methoxyphenyl)methanimine]
inhibition at 10 µM [8]: 29 ± 5% | IC50 [5]: 35.2 ± 0.7 µM | IC50 [6]: 76.4 ± 4.7 µM | IC50 at 72 h ([9]; SH-SY5Y neuroblastoma cells): 22.1 ± 0.8 µM | IC50 [10]: 99.4 ± 1.1 µM | IC50 [11]: 105 ± 8 µM | IC50 [12, 16]: 46 ± 5 µM | IC50 [13]: 29.3 ± 2.3 µM | inhibition at 10 µM ([14]; at 10 μM, mean ± SD (n = 3)): 39 ± 2% | IC50 [7]: 37.2 ± 2.4 µM | inhibition at 10 µM [15]: 13 ± 4%

COc1ccc(/N=C/c2c(-c3ccc(F)cc3)c3n(c2-c2ccccc2)CCc2cc(OC)c(OC)cc2-3)cc1 [Compound 12, (E)-1-(1-(4-fluorophenyl)-8,9-dimethoxy-3-phenyl-5,6-dihydropyrrolo[2,1-a]isoquinolin-2-yl)-N-(4-methoxyphenyl)methanimine]
IC50 [5]: 450 ± 19 µM | IC50 [6]: > 500 µM | IC50 [10]: > 500 µM | IC50 [7]: 148 ± 14 µM | melting point: 195 to 197 °C

COc1cc2c(cc1OC)-c1c(-c3ccc(Cl)cc3)c(/C=N/c3ccc(/N=C/c4cn5c(c4-c4ccc(Cl)cc4)-c4cc(OC)c(OC)cc4CC5)cc3)cn1CC2 [Compound 14, (1E,1’E)-N,N’-(1,4-phenylene)bis(1-(1-[4-chlorophenyl]-8,9-dimethoxy-5,6-dihydropyrrolo[2,1-a]isoquinolin-2-yl)methanimine)]
inhibition at 10 µM [8]: 19 ± 5% | IC50 [5]: 310 ± 12 µM | IC50 [6]: 269 ± 11 µM | IC50 at 72 h [9]: 29.3 ± 0.1 µM | IC50 [10]: > 500 µM | IC50 [12, 16]: 13 ± 1 µM | fold stronger inhibition of Aβ40 aggregation than the respective mono-DHPPIQ Schiff base 9 ([12]; ratio of IC50 values, 14 vs 9): 3.5 fold | hAChE potency relative to the reference compound galantamine ([13]; 14 vs galantamine): tenfold less potent | inhibition mechanism on hAChE [13]: noncompetitive/mixed-type inhibition mechanism | Ki [13]: 4.69 µM | IC50 [13]: 7.3 ± 0.74 µM | IC50 ([14]; human recombinant MAO A, kynuramine, mean ± SD (n = 3), read-out: IC50 hMAO A): 12.1 ± 2.3 µM | IC50 [7]: 390 ± 16 µM | inhibition at 10 µM [15]: 13 ± 1%

CCOc1ccc(-c2c(CN(C)CCNC)cn3c2-c2cc(OCC)c(OCC)cc2CC3)cc1OCC.O=C(O)/C=C/C(=O)O [Compound 17a, 2-(([1-(3,4-diethoxyphenyl]-8,9-diethoxy-5,6-dihydropyrrolo[2,1-a]isoquinolin-2-yl)methyl)(methyl)amino)-N-methylethan-1-aminium (E)-3-carboxyacrylate]
IC50 [8]: 14.3 ± 1.4 µM | IC50 [5]: 29.7 ± 0.9 µM | IC50 [6]: 10.1 ± 0.1 µM | IC50 at 72 h ([9]; SH-SY5Y neuroblastoma cells): 17.9 ± 0.1 µM | IC50 [10]: 35.9 ± 2.4 µM | IC50 [11]: 46.6 ± 1.5 µM | inhibition at 100 µM ([12]; at 100 μM, Aβ40 30 μM, 2% HFIP, ThT, mean ± SD (n = 3)): 31 ± 3% | inhibition mechanism on hAChE [13]: noncompetitive/mixed-type inhibition mechanism | Ki [13]: 13.6 ± 0.1 µM | IC50 [13]: 16 µM and 16.4 µM | inhibition at 10 µM [14]: 38 ± 5% | IC50 [7]: 18.6 ± 0.4 µM | % inhibition hBChE ([15]; at 10 μM): n.i.

CCOc1ccc(-c2c(/C=N/N=C/c3cn4c(c3-c3ccc(OCC)c(OCC)c3)-c3cc(OCC)c(OCC)cc3CC4)cn3c2-c2cc(OCC)c(OCC)cc2CC3)cc1OCC [Compound 18, (1E,2E)-1,2-bis((1-[3,4-diethoxyphenyl]-8,9-diethoxy-5,6-dihydropyrrolo[2,1-a]isoquinolin-2-yl)methylene)hydrazine]
IC50 [5]: 302 ± 23 µM | IC50 [7]: > 500 µM | melting point: 230 to 232 °C
